Common to all, as to assay type: biochemical
Assay [1] concerns the target GST-PLK1 (Homo sapiens, UniProt P53350). Description: PLK TR-FRET peptide assay, PLK1. Conditions: read-out: Plk1 IC50. (In general: TR-FRET usually uses a lanthanide donor and a delayed reading to cut background.)
Assay [2] concerns the target T1, GST-PLK2 (Homo sapiens, UniProt Q9NYY3).
T1 construct: purchased CarnaBio
Kind of assay: PLK TR-FRET peptide assay, PLK2. To be noted: for IC50: PLK TR-FRET peptide assay, GST-PLK2, read-out: Plk2 IC50; for PLK2 activity relative to the opposite enantiomer / other isomer: comparison of resolved enantiomers, used to assign absolute configuration.

Assay [3] addresses T2, GST-PLK3 (Homo sapiens, UniProt Q9H4B4).
T2 construct: purchased CarnaBio
Description: PLK TR-FRET peptide assay, PLK3. To be noted: PLK TR-FRET peptide assay, GST-PLK3; read-out: Plk3 IC50.

Bounds are passed on as bounds.

Data on 18 compounds can be found in patent US8445503B2, “Inhibitors of polo-like kinase” (Elan Pharmaceuticals, Inc., priority 2009, dated 2013).

T1 sequence (Q9NYY3 whole entry): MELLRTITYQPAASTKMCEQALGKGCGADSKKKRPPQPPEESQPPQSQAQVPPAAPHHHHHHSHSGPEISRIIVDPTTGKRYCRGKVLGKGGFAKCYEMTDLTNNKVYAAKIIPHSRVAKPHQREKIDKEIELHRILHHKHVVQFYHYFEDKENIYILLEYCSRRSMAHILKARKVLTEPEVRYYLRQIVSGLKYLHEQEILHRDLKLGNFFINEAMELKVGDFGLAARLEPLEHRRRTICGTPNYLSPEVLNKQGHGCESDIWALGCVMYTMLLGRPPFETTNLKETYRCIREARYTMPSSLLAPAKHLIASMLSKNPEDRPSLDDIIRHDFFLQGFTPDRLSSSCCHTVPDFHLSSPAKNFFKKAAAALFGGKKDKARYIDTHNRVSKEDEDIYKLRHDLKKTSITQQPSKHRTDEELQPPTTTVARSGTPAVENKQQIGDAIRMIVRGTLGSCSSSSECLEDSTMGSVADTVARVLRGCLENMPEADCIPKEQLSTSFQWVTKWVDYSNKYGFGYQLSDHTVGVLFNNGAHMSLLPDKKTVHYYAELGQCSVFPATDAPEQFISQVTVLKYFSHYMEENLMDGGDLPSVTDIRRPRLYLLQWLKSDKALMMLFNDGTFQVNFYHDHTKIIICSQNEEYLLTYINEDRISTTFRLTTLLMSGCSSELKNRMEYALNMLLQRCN
GST-PLK1, sequence (P53350 whole entry): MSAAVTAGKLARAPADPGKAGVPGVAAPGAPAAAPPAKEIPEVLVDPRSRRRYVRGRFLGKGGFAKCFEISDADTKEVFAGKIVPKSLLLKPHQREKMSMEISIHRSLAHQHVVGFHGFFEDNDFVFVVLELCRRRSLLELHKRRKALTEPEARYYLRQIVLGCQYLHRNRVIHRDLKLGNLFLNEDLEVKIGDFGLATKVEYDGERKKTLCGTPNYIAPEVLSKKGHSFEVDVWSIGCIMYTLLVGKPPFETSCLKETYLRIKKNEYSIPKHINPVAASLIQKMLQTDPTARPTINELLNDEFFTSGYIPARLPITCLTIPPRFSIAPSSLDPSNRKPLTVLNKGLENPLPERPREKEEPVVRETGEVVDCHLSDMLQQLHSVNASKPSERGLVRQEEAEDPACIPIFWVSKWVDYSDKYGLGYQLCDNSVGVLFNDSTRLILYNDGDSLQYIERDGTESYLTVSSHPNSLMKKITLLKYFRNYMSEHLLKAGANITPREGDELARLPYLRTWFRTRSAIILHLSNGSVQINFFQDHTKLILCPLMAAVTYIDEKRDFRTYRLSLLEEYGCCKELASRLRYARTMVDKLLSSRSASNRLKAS
T2 sequence (Q9H4B4 whole entry): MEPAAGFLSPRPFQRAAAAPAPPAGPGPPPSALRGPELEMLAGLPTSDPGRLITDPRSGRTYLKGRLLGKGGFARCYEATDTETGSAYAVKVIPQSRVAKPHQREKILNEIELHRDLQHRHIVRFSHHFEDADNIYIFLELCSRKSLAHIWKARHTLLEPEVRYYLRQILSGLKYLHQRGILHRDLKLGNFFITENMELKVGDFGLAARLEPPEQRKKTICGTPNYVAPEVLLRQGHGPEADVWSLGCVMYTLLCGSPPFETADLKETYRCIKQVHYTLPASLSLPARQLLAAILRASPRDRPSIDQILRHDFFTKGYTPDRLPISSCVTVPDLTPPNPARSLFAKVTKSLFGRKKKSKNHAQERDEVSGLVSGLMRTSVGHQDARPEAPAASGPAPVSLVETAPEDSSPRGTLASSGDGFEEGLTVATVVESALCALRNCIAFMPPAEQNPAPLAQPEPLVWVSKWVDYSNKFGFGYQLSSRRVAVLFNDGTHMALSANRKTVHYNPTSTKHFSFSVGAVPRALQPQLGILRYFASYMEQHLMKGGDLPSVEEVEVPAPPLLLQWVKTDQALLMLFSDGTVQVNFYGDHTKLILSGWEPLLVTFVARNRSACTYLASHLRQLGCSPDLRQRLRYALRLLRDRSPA

Consider `CC[C@]12COCCN1c1nc(-n3ccnc3-c3nccs3)ncc1N(C)C2=O` [Example 386, (R)-6a-ethyl-5-methyl-2-(2-(thiazol-2-yl)-1H-imidazol-1-yl)-6a,7,9,10-tetrahydro-[1,4]oxazino[3,4-h]pteridin-6(5H)-one], for which the IC50 in assay [1], in assay [2] and in assay [3] was above 50 µM throughout.
Regarding `CC[C@@]12COCCN1c1nc(-c3[nH]nnc3-c3ccccc3)ncc1N(C)C2=O` [Example 373, (S)-6a-ethyl-5-methyl-2-(4-phenyl-1H-1,2,3-triazol-5-yl)-6a,7,9,10-tetrahydro-[1,4]oxazino[3,4-h]pteridin-6(5H)-one], the IC50 in assay [1] was 10 to 50 µM; in assay [2], 1 to 10 µM; in assay [3], 1 to 10 µM.
As for `CC[C@@]12COCCN1c1nc(-c3snnc3-c3ccc(F)cc3F)ncc1N(C)C2=O` [Example 397, (S)-2-(4-(2,4-difluorophenyl)-1,2,3-thiadiazol-5-yl)-6a-ethyl-5-methyl-6a,7,9,10-tetrahydro-[1,4]oxazino[3,4-h]pteridin-6(5H)-one], the values for the IC50 in assay [1], in assay [2] and in assay [3] were 10 to 50 µM, below 1 µM and 10 to 50 µM, respectively. In assay [2], the “PLK2 activity relative to the opposite enantiomer / other isomer” value is recorded as “more active compound”.
As for `CC[C@@]12COCCN1c1nc(-c3ccncc3-c3ccccc3)ncc1N(C)C2=O` [Example 394, (S)-6a-ethyl-5-methyl-2-(3-phenylpyridin-4-yl)-6a,7,9,10-tetrahydro-[1,4]oxazino[3,4-h]pteridin-6(5H)-one], the figures for the IC50 in assay [1], in assay [2] and in assay [3] were 1 to 10 µM, below 1 µM and 1 to 10 µM, respectively. Moreover, the “PLK2 activity relative to the opposite enantiomer / other isomer” value in assay [2] is on record as “more active compound”.
For `CC[C@@H]1C(=O)N(C)c2cnc(-c3cnsc3-c3ccc(F)cc3)nc2N1C(C)C` [Example 296, (R)-7-ethyl-2-(5-(4-fluorophenyl)isothiazol-4-yl)-8-isopropyl-5-methyl-7,8-dihydropteridin-6(5H)-one], the IC50 in assay [1] was below 1 µM; in assay [2] it was below 1 µM; in assay [3] it was 1 to 10 µM.
On to `CC[C@]12COCCN1c1nc(-n3ccnc3-c3ccc(F)cc3F)ncc1N(C)C2=O` [Example 377, (R)-2-(2-(2,4-difluorophenyl)-1H-imidazol-1-yl)-6a-ethyl-5-methyl-6a,7,9,10-tetrahydro-[1,4]oxazino[3,4-h]pteridin-6(5H)-one], for which the IC50 in assay [1] is above 50 µM; in assay [2] it was 10 to 50 µM; in assay [3], above 50 µM.
In the case of `CC[C@@H]1C(=O)N(C)c2cnc(-n3ccnc3)nc2N1C1CCCC1` [Example 3, (R)-8-cyclopentyl-7-ethyl-2-(1H-imidazol-1-yl)-5-methyl-7,8-dihydropteridin-6(5H)-one], the 50% inhibitory concentration (IC50) in assay [1] is below 1 µM; in assay [2] it was below 1 µM; in assay [3] it was 10 to 50 µM.
Take `CC[C@@H]1C(=O)N(C)c2cnc(-c3ccncc3-c3ccccc3)nc2N1C(C)C` [Example 110, (R)-7-ethyl-8-isopropyl-5-methyl-2-(3-phenylpyridin-4-yl)-7,8-dihydropteridin-6(5H)-one]: the IC50 in assay [1], in assay [2] and in assay [3] was below 1 µM in each case.
For `CC[C@@]12COCCN1c1nc(-n3ccnc3-c3ccc(F)cc3F)ncc1N(C)C2=O` [Example 376, (S)-2-(2-(2,4-difluorophenyl)-1H-imidazol-1-yl)-6a-ethyl-5-methyl-6a,7,9,10-tetrahydro-[1,4]oxazino[3,4-h]pteridin-6(5H)-one], the half-inhibitory concentration (IC50) in assay [1] was 10 to 50 µM; in assay [2], below 1 µM; in assay [3], 10 to 50 µM. The “PLK2 activity relative to the opposite enantiomer / other isomer” value in assay [2] is recorded as “more active compound”.
For `CC[C@@H]1C(=O)N(C)c2cnc(-n3ccnc3-c3ccccc3)nc2N1c1cnn(C)c1` [Example 409, (R)-7-ethyl-5-methyl-8-(1-methyl-1H-pyrazol-4-yl)-2-(2-phenyl-1H-imidazol-1-yl)-7,8-dihydropteridin-6(5H)-one], the half-maximal inhibitory concentration (IC50) in assay [1] is below 1 µM; in assay [2], below 1 µM; in assay [3], 1 to 10 µM. Also, the “PLK2 activity relative to the opposite enantiomer / other isomer” value in assay [2] is reported as “more active compound”.
Turning to `CC[C@@H]1C(=O)N(C)c2cnc(-n3ccnc3-c3ccncc3)nc2N1C1CCCC1` [Example 83, (R)-8-cyclopentyl-7-ethyl-5-methyl-2-(2-(pyridin-4-yl)-1H-imidazol-1-yl)-7,8-dihydropteridin-6(5H)-one], the half-maximal inhibitory concentration (IC50) in assay [1], in assay [2] and in assay [3] was below 1 µM each time.
Turning to `CC[C@@]12CCCN1c1nc(-n3ccnc3-c3ccccn3)ncc1N(C)C2=O` [Example 145, (S)-6a-ethyl-5-methyl-2-(2-(pyridin-2-yl)-1H-imidazol-1-yl)-6a,7,8,9-tetrahydropyrrolo[2,1-h]pteridin-6(5H)-one], the 50% inhibitory concentration (IC50) was 10 to 50 µM in assay [1], 1 to 10 µM in assay [2] and 10 to 50 µM in assay [3].
Turning to `CC[C@@H]1C(=O)N(C)c2cnc(-n3cnc(CC#N)c3)nc2N1C1CCCC1` [Example 35, (R)-2-(1-(8-cyclopentyl-7-ethyl-5-methyl-6-oxo-5,6,7,8-tetrahydropteridin-2-yl)-1H-imidazol-4-yl)acetonitrile], the concentration for half-maximal inhibition (IC50) was 1 to 10 µM in assay [1], below 1 µM in assay [2] and 10 to 50 µM in assay [3].
The corresponding values for `CC[C@@H]1C(=O)N(C)c2cnc(-n3cnc(-c4cscn4)c3)nc2N1C1CCCC1` [Example 54, (R)-8-cyclopentyl-7-ethyl-5-methyl-2-(4-(thiazol-4-yl)-1H-imidazol-1-yl)-7,8-dihydropteridin-6(5H)-one] are below 1 µM, below 1 µM and 1 to 10 µM.
For `CC[C@@H]1C(=O)N(C)c2cnc(-n3ccnc3-c3cn[nH]c3)nc2N1C1CCCC1` [Example 97, (R)-2-(2-(1H-pyrazol-4-yl)-1H-imidazol-1-yl)-8-cyclopentyl-7-ethyl-5-methyl-7,8-dihydropteridin-6(5H)-one], the IC50 in assay [1], in assay [2] and in assay [3] was below 1 µM throughout.
As for `CC[C@@H]1C(=O)N(C)c2cnc(-c3cn[nH]c3-c3ccccn3)nc2N1C1CCCC1` [Example 306, (R)-8-cyclopentyl-7-ethyl-5-methyl-2-(5-(pyridin-2-yl)-1H-pyrazol-4-yl)-7,8-dihydropteridin-6(5H)-one], the IC50 in assay [1], in assay [2] and in assay [3] was below 1 µM throughout.
For the compound `CC[C@@H]1C(=O)N(C)c2cnc(-n3ccnc3N3CCOC3=O)nc2N1C1CCCC1` [Example 78, (R)-3-(1-(8-cyclopentyl-7-ethyl-5-methyl-6-oxo-5,6,7,8-tetrahydropteridin-2-yl)-1H-imidazol-2-yl)oxazolidin-2-one], the IC50 was 1 to 10 µM in assay [1], below 1 µM in assay [2] and 10 to 50 µM in assay [3].
Regarding `CCC1C(=O)N(C)c2cnc(-n3ccnc3-c3ccc(F)cc3)nc2N1c1ccccc1` (stereo not shown) [Example 291, 7-ethyl-2-(2-(4-fluorophenyl)-1H-imidazol-1-yl)-5-methyl-8-phenyl-7,8-dihydropteridin-6(5H)-one], the half-inhibitory concentration (IC50) in assay [1] is 1 to 10 µM; in assay [2], below 1 µM; in assay [3], 1 to 10 µM.

The term IC50 denotes the concentration needed to halve the response being measured.
